From ChEMBL document CHEMBL3877299, “Imidazopyridine-fused [1,3]-diazepinones part 2: Structure-activity relationships and antiproliferative activity against melanoma cells” (Eur J Med Chem, 2017)

Assays:
[1] = Growth inhibition of human UACC257 cells assessed as cell growth at 10 uM incubated for 48 hrs by sulforhodamine B assay relative to control; type: functional; settings: UACC-257, 48 h, read-out: Activity
[2] = Growth inhibition of human HCT15 cells assessed as cell growth at 10 uM incubated for 48 hrs by sulforhodamine B assay relative to control; type: functional; settings: HCT-15, 48 h, read-out: Activity
[3] = Growth inhibition of human SK-MEL-28 cells assessed as cell growth at 10 uM incubated for 48 hrs by sulforhodamine B assay relative to control; type: functional; settings: SK-MEL-28, 48 h, read-out: Activity
[4] = Growth inhibition of human MOLT4 cells assessed as cell growth at 10 uM incubated for 48 hrs by sulforhodamine B assay relative to control; type: functional; settings: MOLT-4, 48 h, read-out: Activity
[5] = Growth inhibition of human OVCAR3 cells assessed as cell growth at 10 uM incubated for 48 hrs by sulforhodamine B assay relative to control; type: functional; settings: OVCAR-3, 48 h, read-out: Activity
[6] = Growth inhibition of human MDA-MB-468 cells assessed as cell growth at 10 uM incubated for 48 hrs by sulforhodamine B assay relative to control; type: functional; settings: MDA-MB-468, 48 h, read-out: Activity
[7] = Growth inhibition of human DU145 cells assessed as cell growth at 10 uM incubated for 48 hrs by sulforhodamine B assay relative to control; type: functional; settings: DU-145, 48 h, read-out: Activity
[8] = Growth inhibition of human HOP92 cells assessed as cell growth at 10 uM incubated for 48 hrs by sulforhodamine B assay relative to control; type: functional; settings: HOP-92, 48 h, read-out: Activity
[9] = Growth inhibition of human SW620 cells assessed as cell growth at 10 uM incubated for 48 hrs by sulforhodamine B assay relative to control; type: functional; settings: SW-620, 48 h, read-out: Activity
[10] = Growth inhibition of human NCI-H460 cells assessed as cell growth at 10 uM incubated for 48 hrs by sulforhodamine B assay relative to control; type: functional; settings: NCI-H460, 48 h, read-out: Activity
[11] = Growth inhibition of human HCT116 cells assessed as cell growth at 10 uM incubated for 48 hrs by sulforhodamine B assay relative to control; type: functional; settings: HCT-116, 48 h, read-out: Activity
[12] = Growth inhibition of human NCI-H522 cells assessed as cell growth at 10 uM incubated for 48 hrs by sulforhodamine B assay relative to control; type: functional; settings: NCI-H522, 48 h, read-out: Activity
[13] = Growth inhibition of human RPMI8226 cells assessed as cell growth at 10 uM incubated for 48 hrs by sulforhodamine B assay relative to control; type: functional; settings: RPMI-8226, 48 h, read-out: Activity
[14] = Cytotoxicity against human MDA-MB-435 cells assessed as growth inhibition after 48 hrs by MTT assay; type: functional; settings: MDA-MB-435, 48 h
[15] = Growth inhibition of human TK10 cells assessed as cell growth at 10 uM incubated for 48 hrs by sulforhodamine B assay relative to control; type: functional; settings: TK-10, 48 h, read-out: Activity
[16] = target: Mitogen-activated protein kinase kinase kinase kinase 4 (Homo sapiens, UniProt O95819); assay: Inhibition of recombinant human HGK using Ulight-FLGFTYVAP as substrate after 90 mins by LANCE assay
Sequence of Mitogen-activated protein kinase kinase kinase kinase 4 (O95819 whole entry): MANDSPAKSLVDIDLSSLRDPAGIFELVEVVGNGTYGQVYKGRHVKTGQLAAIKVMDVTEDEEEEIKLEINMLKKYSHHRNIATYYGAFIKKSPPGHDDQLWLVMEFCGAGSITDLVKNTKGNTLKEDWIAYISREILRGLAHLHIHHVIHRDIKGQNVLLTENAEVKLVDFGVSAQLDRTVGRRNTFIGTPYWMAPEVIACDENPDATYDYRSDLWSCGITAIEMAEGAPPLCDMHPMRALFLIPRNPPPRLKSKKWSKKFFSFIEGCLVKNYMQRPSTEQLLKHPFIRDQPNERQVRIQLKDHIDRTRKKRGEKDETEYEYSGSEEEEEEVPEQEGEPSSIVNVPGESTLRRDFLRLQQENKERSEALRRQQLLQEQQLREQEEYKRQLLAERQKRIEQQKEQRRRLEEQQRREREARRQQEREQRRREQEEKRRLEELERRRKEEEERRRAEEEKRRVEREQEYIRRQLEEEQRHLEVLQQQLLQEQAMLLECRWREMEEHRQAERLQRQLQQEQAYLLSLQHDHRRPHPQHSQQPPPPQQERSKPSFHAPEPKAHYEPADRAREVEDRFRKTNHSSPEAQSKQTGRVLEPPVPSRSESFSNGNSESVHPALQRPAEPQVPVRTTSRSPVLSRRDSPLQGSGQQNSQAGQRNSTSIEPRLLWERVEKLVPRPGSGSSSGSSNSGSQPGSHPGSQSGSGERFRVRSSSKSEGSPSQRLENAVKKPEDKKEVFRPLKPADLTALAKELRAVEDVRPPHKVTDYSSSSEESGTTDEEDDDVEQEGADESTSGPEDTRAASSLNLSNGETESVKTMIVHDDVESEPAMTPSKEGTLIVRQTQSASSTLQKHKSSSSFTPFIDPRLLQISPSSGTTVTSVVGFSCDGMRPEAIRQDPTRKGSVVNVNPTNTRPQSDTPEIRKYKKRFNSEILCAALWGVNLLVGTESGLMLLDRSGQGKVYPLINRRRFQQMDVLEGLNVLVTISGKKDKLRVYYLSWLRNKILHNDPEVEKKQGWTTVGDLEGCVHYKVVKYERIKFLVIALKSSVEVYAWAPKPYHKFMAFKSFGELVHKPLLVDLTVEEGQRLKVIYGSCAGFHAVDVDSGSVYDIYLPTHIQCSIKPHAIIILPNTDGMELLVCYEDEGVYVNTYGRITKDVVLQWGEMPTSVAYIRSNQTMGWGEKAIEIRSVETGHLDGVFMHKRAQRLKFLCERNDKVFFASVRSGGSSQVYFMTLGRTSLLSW

[17] = Growth inhibition of human NCI-H226 cells assessed as cell growth at 10 uM incubated for 48 hrs by sulforhodamine B assay relative to control; type: functional; settings: NCI-H226, 48 h, read-out: Activity
[18] = Growth inhibition of human SNB75 cells assessed as cell growth at 10 uM incubated for 48 hrs by sulforhodamine B assay relative to control; type: functional; settings: SNB-75, 48 h, read-out: Activity
[19] = Growth inhibition of human HOP62 cells assessed as cell growth at 10 uM incubated for 48 hrs by sulforhodamine B assay relative to control; type: functional; settings: HOP-62, 48 h, read-out: Activity
[20] = Growth inhibition of human OVCAR8 cells assessed as cell growth at 10 uM incubated for 48 hrs by sulforhodamine B assay relative to control; type: functional; settings: OVCAR-8, 48 h, read-out: Activity
[21] = Growth inhibition of human SR cells assessed as cell growth at 10 uM incubated for 48 hrs by sulforhodamine B assay relative to control; type: functional; settings: read-out: Activity
[22] = Growth inhibition of human NCI/ADR-RES cells assessed as cell growth at 10 uM incubated for 48 hrs by sulforhodamine B assay relative to control; type: functional; settings: read-out: Activity
[23] = Growth inhibition of human OVCAR4 cells assessed as cell growth at 10 uM incubated for 48 hrs by sulforhodamine B assay relative to control; type: functional; settings: OVCAR-4, 48 h, read-out: Activity
[24] = Growth inhibition of human 786-0 cells assessed as cell growth at 10 uM incubated for 48 hrs by sulforhodamine B assay relative to control; type: functional; settings: 786-0, 48 h, read-out: Activity
[25] = Growth inhibition of human SF295 cells assessed as cell growth at 10 uM incubated for 48 hrs by sulforhodamine B assay relative to control; type: functional; settings: SF-295, 48 h, read-out: Activity
[26] = Growth inhibition of human SNB19 cells assessed as cell growth at 10 uM incubated for 48 hrs by sulforhodamine B assay relative to control; type: functional; settings: SNB-19, 48 h, read-out: Activity

| SMILES | growth at 10 µM [1] | growth at 10 µM [2] | growth at 10 µM [3] | growth at 10 µM [4] | growth at 10 µM [5] | growth at 10 µM [6] | growth at 10 µM [7] | growth at 10 µM [9] | growth at 10 µM [10] | growth at 10 µM [11] | growth at 10 µM [12] | growth at 10 µM [13] | GI50 [14] | growth at 10 µM [15] | growth at 10 µM [17] | growth at 10 µM [18] | growth at 10 µM [19] | growth at 10 µM [20] | growth at 10 µM [21] | growth at 10 µM [22] | also measured |
| --- | --- | --- | --- | --- | --- | --- | --- | --- | --- | --- | --- | --- | --- | --- | --- | --- | --- | --- | --- | --- | --- |
| C[C@@H]1NC(c2ccc(Cl)cc2Cl)=Nc2nc3ccccn3c2C1=O | 52.4% | 35.1% | 60.7% | 50.4% | 2.44% | 53.9% | 64.8% | 25.2% | 18.7% | 28.1% | 28.9% | 75.2% | 1150 nM | 74.5% | 75.7% | 58.7% | 52.6% | 68.1% | 33% | 44.5% | growth at 10 µM [8]: 55.9%; IC50 [16]: > 100000 nM; growth at 10 µM [23]: 89.5%; growth at 10 µM [24]: 73.2%; growth at 10 µM [25]: 14.5%; growth at 10 µM [26]: 60.8% |
| C[C@@H]1NC(c2ccc3ccccc3c2)=Nc2nc3ccccn3c2C1=O | 40.9% | 33.8% | 59.9% | 34.5% | 16.9% | 50.5% | 73.3% | 26.3% | 15.2% | 18.3% | 29.4% | 43.8% | 1400 nM | 64.4% | 64.5% | 37.1% | 36.7% | 54.4% | 30.5% | 44.5% | growth at 10 µM [23]: 74.5%; growth at 10 µM [24]: 69.3%; growth at 10 µM [25]: 14.9%; growth at 10 µM [26]: 53.3% |
| CC(C)(C)OC[C@@H]1NC(c2ccc(Br)cc2)=Nc2nc3ccccn3c2C1=O | 62.3% | 44.1% | 68.6% | 53.7% | 34.2% | 45.6% | 82.7% | 40.3% | 41.3% | 43.7% | 33.4% | 67.5% | 950 nM | 95.1% | 78.1% | 77.4% | 54.5% | 79.5% | 35.4% | 39.7% | IC50 [16]: 5600 nM; growth at 10 µM [23]: 82.3%; growth at 10 µM [24]: 94.2%; growth at 10 µM [25]: 30.9%; growth at 10 µM [26]: 76.5% |
| C[C@@H]1NC(c2ccc(Cl)cc2)=Nc2nc3ccccn3c2C1=O | 80.7% | 77.6% | 92.8% | 88.5% | 84.3% | 97.9% | 100% | 83.6% | 96.1% | 97% | 66.3% | 91.3% | 5000 nM | 114% | 88% | 92.5% | 73.3% | 90.3% | 46.7% | 85.6% | growth at 10 µM [23]: 109%; growth at 10 µM [24]: 108%; growth at 10 µM [25]: 92.4%; growth at 10 µM [26]: 93.2% |
